Patent publication US12157730B2, “Heteroaryl derivative, method for producing same, and pharmaceutical composition comprising same as effective component” (VORONOI INC., priority 2019, dated 2024)

Each molecule was assayed against T1, Ba/F3 cell EGFR Exon20 ins NPH (Homo sapiens, UniProt P00533, INS773NPH) (assay: Ba/F3 cell proliferation suppression, EGFR Exon20 ins NPH). Conditions: GI50 class; Ba/F3 cell line with NPH inserted at Exon20 of EGFR; 72 hours.
T1 construct: expressed in transfected cells; host or cells: Ba/F3
Type: cell-based
In short: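 Growth suppression determined as GI50 following 72 h exposure across 12 concentrations up to 50 um, with viability by luminescent ATP assay (CellTiter-Glo).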

Row | SMILES | Ba/F3 (NPH) Activity
1 | C=CC(=O)Nc1cc(Nc2cc(N3OCC[C@@H]3c3ccc(F)c(Cl)c3)ncn2)c(OC)cc1N1CCN(C(C)C)CC1 [compound 724, N-(5-((6-((R)-3-(3-chloro-4-fluorophenyl)isoxazolidine-2-yl)pyrimidine-4-yl)amino)-2-(4-isopropylpiperazine-1-yl)-4-methoxyphenyl) acrylamide] | A (GI50 < 50 nM)
2 | C=CC(=O)Nc1cc(Nc2cc(N3OCC[C@@H]3c3ccc(F)c(Cl)c3)ncn2)c(OC)cc1N1CCC(N2CCN(C3CCCC3)CC2)CC1 [Example 99, N-(5-((6-((R)-3-(3-chloro-4-fluorophenyl)isoxazolidine-2-yl)pyrimidine-4-yl)amino)-2-(4-(4-cyclopentylpiperazine-1-yl)piperidine-1-yl)-4-methoxyphenyl) acrylamide] | A (GI50 < 50 nM)
3 | C=CC(=O)Nc1cc(Nc2cc(N3OCC[C@@H]3c3ccc(Cl)cc3)ncn2)c(OC)cc1N1CCC(N2CCN(C3CCC3)CC2)CC1 [Example 75, N-(5-((6-((R)-3-(4-chlorophenyl)isoxazolidine-2-yl)pyrimidine-4-yl)amino)-2-(4-(4-cyclobutylpiperazine-1-yl)piperidine-1-yl)-4-methoxyphenyl) acrylamide] | A (GI50 < 50 nM)
4 | C=CC(=O)Nc1cc(Nc2cc(N3OCC[C@@H]3c3cccc(C#N)c3)ncn2)c(OC)cc1N1CCC(N2CCN(C3CC3)CC2)CC1 [Example 141, N-(5-((6-((R)-3-(3-cyanophenyl)isoxazolidine-2-yl)pyrimidine-4-yl)amino)-2-(4-(4-cyclopropylpiperazine-1-yl)piperidine-1-yl)-4-methoxyphenyl) acrylamide] | A (GI50 < 50 nM)
5 | C=CC(=O)Nc1cc(Nc2cc(N3OCC[C@@H]3c3cc(F)cc(Cl)c3)ncn2)c(OC)cc1N1CCC(O)CC1 [compound 591, N-(5-((6-((R)-3-(3-chloro-5-fluorophenyl)isoxazolidine-2-yl)pyrimidine-4-yl)amino)-2-(4-hydroxypiperidine-1-yl)-4-methoxyphenyl) acrylamide] | A (GI50 < 50 nM)
6 | C=CC(=O)Nc1cc(Nc2cc(N3OCC[C@@H]3c3ccc(F)c(F)c3F)ncn2)c(OC)cc1N(C)CCN(C)C [compound 571, N-(2-((2-(dimethylamino)ethyl) (methyl)amino)-4-methoxy-5-((6-((R)-3-(2,3,4-trifluorophenyl)isoxazolidine-2-yl)pyrimidine-4-yl)amino)phenyl) acrylamide] | A (GI50 < 50 nM)
7 | C=CC(=O)Nc1cc(Nc2cc(N3OCC[C@@H]3c3cccc4ccccc34)ncn2)c(OC)cc1N1CCC(N2CCN(C3CCC3)CC2)CC1 [Example 184, N-(2-(4-(4-cyclobutylpiperazine-1-yl)piperidine-1-yl)-4-methoxy-5-((6-((R)-3-(naphthalene-1-yl)isoxazolidine-2-yl)pyrimidine-4-yl)amino)phenyl)acrylamide] | B (50 nM ≤ GI50 < 500 nM)
8 | C=CC(=O)Nc1cc(Nc2cc(N3OCC[C@@H]3c3cccc(Cl)c3C)ncn2)c(OC)cc1N1CCN(C)CC1 [compound 584, N-(5-((6-((R)-3-(3-chloro-2-methylphenyl)isoxazolidine-2-yl)pyrimidine-4-yl)amino)-4-methoxy-2-(4-methylpiperazine-1-yl)phenyl)acrylamide] | A (GI50 < 50 nM)
9 | C=CC(=O)Nc1cc(Nc2cc(N3OCC[C@@H]3c3ccc(Cl)cc3)ncn2)c(OC)cc1N1CCC(N(C)C)CC1 [compound 805, N-(5-((6-((R)-3-(4-chlorophenyl)isoxazolidine-2-yl)pyrimidine-4-yl)amino)-2-(4-(dimethylamino)piperidine-1-yl)-4-methoxyphenyl) acrylamide] | A (GI50 < 50 nM)
10 | C=CCN1CCN(C2CCN(c3cc(OC)c(Nc4cc(N5OCC[C@@H]5Cc5cccc(Cl)c5Cl)ncn4)cc3NC(=O)C=C)CC2)CC1 [compound 1024, N-(2-(4-(4-allylpiperazine-1-yl)piperidine-1-yl)-5-((6-((S)-3-(2,3-dichlorobenzyl)isoxazolidine-2-yl)pyrimidine-4-yl)amino)-4-methoxyphenyl) acrylamide] | A (GI50 < 50 nM)
11 | C=CC(=O)Nc1cc(Nc2cc(N3OCC[C@@H]3Cc3cccc(Cl)c3Cl)ncn2)c(OC)cc1N1CCC(N2C[C@H]3C[C@@H]2CO3)CC1 [compound 1014, N-(2-(4-((1R,4R)-2-oxa-5-azabicyclo [2.2.1]heptane-5-yl)piperidine-1-yl)-5-((6-((S)-3-(2,3-dichlorobenzyl)isoxazolidine-2-yl)pyrimidine-4-yl)amino)-4-methoxyphenyl) acrylamide] | A (GI50 < 50 nM)
12 | C=CC(=O)Nc1cc(Nc2cc(N3OCC[C@@H]3Cc3ccccc3)ncn2)c(OC)cc1N1CCN(C2CC2)CC1 [compound 952, N-(5-((6-((S)-3-benzylisoxazolidine-2-yl)pyrimidine-4-yl)amino)-2-(4-cyclopropylpiperazine-1-yl)-4-methoxyphenyl) acrylamide] | A (GI50 < 50 nM)

Now from value to molecule:

Row | Ba/F3 (NPH) Activity | SMILES
13 | A (GI50 < 50 nM) | C=CC(=O)Nc1cc(Nc2cc(N3OCC[C@@H]3c3cc(F)cc(Cl)c3)ncn2)c(OC)cc1N1CCC(N2CCN(C3CC3)C[C@@H]2C)CC1 [Example 160, N-(5-((6-((R)-3-(3-chloro-5-fluorophenyl)isoxazolidine-2-yl)pyrimidine-4-yl)amino)-2-(4-((S)-4-cyclopropyl-2-methylpiperazine-1-yl)piperidine-1-yl)-4-methoxyphenyl) acrylamide]
14 | A (GI50 < 50 nM) | C=CC(=O)Nc1cc(Nc2cc(N3OCC[C@@H]3c3ccc(Cl)cc3)ncn2)c(OC)cc1N1CCC(N2CCN(C)CC2)CC1 [compound 732, N-(5-((6-((R)-3-(4-chlorophenyl)isoxazolidine-2-yl)pyrimidine-4-yl)amino)-4-methoxy-2-(4-(4-methylpiperazine-1-yl)piperidine-1-yl)phenyl) acrylamide]
15 | B (50 nM ≤ GI50 < 500 nM) | C=CC(=O)Nc1cc(Nc2cc(N3OCC[C@@H]3c3ccc(F)c(F)c3)ncn2)c(OC)cc1N1CC[C@@H](N2CCOCC2)C1 [compound 578, N-(5-((6-((R)-3-(3,4-difluorophenyl)isoxazolidine-2-yl)pyrimidine-4-yl)amino)-4-methoxy-2-((R)-3-morpholinopyrolidine-1-yl)phenyl)acrylamide]
16 | A (GI50 < 50 nM) | C=CC(=O)Nc1cc(Nc2cc(N3OCC[C@@H]3c3cccc(Cl)c3C)ncn2)c(OC)cc1N1CCC(N2CCN(C3CC3)[C@@H](C)C2)CC1 [Example 153, N-(5-((6-((R)-3-(3-chloro-2-methylphenyl)isoxazolidine-2-yl)pyrimidine-4-yl)amino)-2-(4-((S)-4-cyclopropyl-3-methylpiperazine-1-yl)piperidine-1-yl)-4-methoxyphenyl) acrylamide]
17 | A (GI50 < 50 nM) | C=CC(=O)Nc1cc(Nc2cc(N3OCC[C@@H]3Cc3cccc(Cl)c3Cl)ncn2)c(OC)cc1N1CCC(N2CCO[C@@H](C)C2)CC1 [compound 1013, N-(5-((6-((S)-3-(2,3-dichlorobenzyl)isoxazolidine-2-yl)pyrimidine-4-yl)amino)-4-methoxy-2-(4-((S)-2-methylmorpholino)piperidine-1-yl)phenyl) acrylamide]
18 | A (GI50 < 50 nM) | C=CCN1CCN(C2CCN(c3cc(OC)c(Nc4cc(N5OCC[C@@H]5c5cc(F)cc(F)c5)ncn4)cc3NC(=O)C=C)CC2)CC1 [Example 87, N-(2-(4-(4-allylpiperazine-1-yl)piperidine-1-yl)-5-((6-((R)-3-(3,5-difluorophenyl)isoxazolidine-2-yl)pyrimidine-4-yl)amino)-4-methoxyphenyl) acrylamide]
19 | A (GI50 < 50 nM) | C=CC(=O)Nc1cc(Nc2cc(N3OCC[C@@H]3c3cccc(Cl)c3C)ncn2)c(OC)cc1N1CCC(N2C[C@@H](C)O[C@@H](C)C2)CC1 [compound 528, N-(5-((6-((R)-3-(3-chloro-2-methylphenyl)isoxazolidine-2-yl)pyrimidine-4-yl)amino)-2-(4-((2S,6R)-2,6-dimethylmorpholino)piperidine-1-yl)-4-methoxyphenyl) acrylamide]
20 | C (500 nM ≤ GI50 < 5000 nM) | C=CC(=O)Nc1cc(Nc2cc(N3OCC[C@H]3c3c(F)cccc3F)ncn2)c(OC)cc1N1CCC(N2CCN(C)[C@@H](C)C2)CC1 [compound 313, N-(5-((6-((S)-3-(2,6-difluorophenyl)isoxazolidine-2-yl)pyrimidine-4-yl)amino)-2-(4-((S)-3,4-dimethylpiperazine-1-yl)piperidine-1-yl)-4-methoxyphenyl) acrylamide]
21 | B (50 nM ≤ GI50 < 500 nM) | C=CC(=O)Nc1cc(Nc2cc(N3OCC[C@@H]3c3ccc(Cl)c(Cl)c3F)ncn2)c(OC)cc1N1CCC(N2CCN(C(C)=O)CC2)CC1 [compound 774, N-(2-(4-(4-acetylpiperazine-1-yl)piperidine-1-yl)-5-((6-((R)-3-(3,4-dichloro-2-fluorophenyl)isoxazolidine-2-yl)pyrimidine-4-yl)amino)-4-methoxyphenyl) acrylamide]
22 | A (GI50 < 50 nM) | C=CC(=O)Nc1cc(Nc2cc(N3OCC[C@@H]3c3ccc(F)c(F)c3)ncn2)c(OC)cc1N1CCC(N2CCC(N(C)C)CC2)CC1 [compound 546, N-(5-((6-((R)-3-(3,4-difluorophenyl)isoxazolidine-2-yl)pyrimidine-4-yl)amino)-2-(4-(dimethylamino)-[1,4'-bipiperidine]-1'-yl)-4-methoxyphenyl) acrylamide]
23 | A (GI50 < 50 nM) | C=CC(=O)Nc1cc(Nc2cc(N3OCC[C@@H]3c3cc(F)cc(F)c3)ncn2)c(OC)cc1N1CCC(N2C[C@@H](C)O[C@@H](C)C2)CC1 [Example 266, N-(5-((6-((R)-3-(3,5-difluorophenyl)isoxazolidine-2-yl)pyrimidine-4-yl)amino)-2-(4-((2S,6R)-2,6-dimethylmorpholino)piperidine-1-yl)-4-methoxyphenyl) acrylamide]
